The test system of this assay is MV-4-11 cells. The assay is described as follows: Gene expression microarray analysis (Affymetrix PrimeView) and GSEA. In kind it is cell-based, human. Set-up: RFU PODN (11730768_x_at) / Fold change /veh PODN (11730768_x_at) / RFU LINC00158 (11744669_a_at) / Fold change /veh LINC00158 (11744669_a_at) / RFU DUSP10 (11751237_a_at) / Fold change /veh DUSP10 (11751237_a_at) / RFU ID3 (11757404_x_at) / Fold change /veh ID3 (11757404_x_at) / RFU PLEKHG5 (11737974_s_at) / Fold change /veh PLEKHG5 (11737974_s_at) / RFU LRRC4B (11730491_at) / Fold change /veh LRRC4B (11730491_at) / RFU GIMAP4 (11747438_a_at) / Fold change /veh GIMAP4 (11747438_a_at) / RFU KRT8 (11758183_x_at) / Fold change /veh KRT8 (11758183_x_at) / RFU CNN1 (11734310_a_at) / Fold change /veh CNN1 (11734310_a_at) / RFU VPS37D (11726825_at) / Fold change /veh VPS37D (11726825_at) / RFU C10orf10 (11716522_x_at) / Fold change /veh C10orf10 (11716522_x_at) / RFU KIR2DL2 /// KIR2DL4 /// KIR2DL5A /// KIR2DL5B /// KIR2DS1 /// KIR2DS2 /// KIR2DS3 /// KIR2DS4 /// KIR3DL3 /// KIR3DL3 /// KIR3DS1 (11738374_at) / Fold change /veh KIR2DL2 /// KIR2DL4 /// KIR2DL5A /// KIR2DL5B /// KIR2DS1 /// KIR2DS2 /// KIR2DS3 /// KIR2DS4 /// KIR3DL3 /// KIR3DL3 /// KIR3DS1 (11738374_at) / RFU C1QL1 (11718748_at) / Fold change /veh C1QL1 (11718748_at) / RFU TMPRSS4 (11747572_a_at) / Fold change /veh TMPRSS4 (11747572_a_at) / RFU HAMP (11756126_x_at) / Fold change /veh HAMP (11756126_x_at) / RFU RNFT2 (11725882_a_at) / Fold change /veh RNFT2 (11725882_a_at) / RFU NR4A2 (11747474_a_at) / Fold change /veh NR4A2 (11747474_a_at) / RFU ABCC12 (11746883_a_at) / Fold change /veh ABCC12 (11746883_a_at) / RFU TMEM136 (11760407_x_at) / Fold change /veh TMEM136 (11760407_x_at) / RFU CLDN22 /// WWC2 (11732394_at) / Fold change /veh CLDN22 /// WWC2 (11732394_at) / RFU HLA-DPB1 (11760878_x_at) / Fold change /veh HLA-DPB1 (11760878_x_at) / RFU SPINT1 (11716480_a_at) / Fold change /veh SPINT1 (11716480_a_at) / RFU GAP43 (11754022_s_at) / Fold change /veh GAP43 (11754022_s_at) / RFU A4GNT (11735810_at) / Fold change /veh A4GNT (11735810_at) / RFU PRB3 (11715151_x_at) / Fold change /veh PRB3 (11715151_x_at) / RFU TUBB4B (11761932_at) / Fold change /veh TUBB4B (11761932_at) / RFU CAPN14 (11732068_a_at) / Fold change /veh CAPN14 (11732068_a_at) / RFU TMCC2 (11721928_a_at) / Fold change /veh TMCC2 (11721928_a_at) / RFU IRGQ (11745062_a_at) / Fold change /veh IRGQ (11745062_a_at) / RFU FAM174B (11720279_a_at) / Fold change /veh FAM174B (11720279_a_at) / RFU TMPRSS4 (11748680_a_at) / Fold change /veh TMPRSS4 (11748680_a_at) / RFU FAM212B (11763350_a_at) / Fold change /veh FAM212B (11763350_a_at) / RFU PLEKHG5 (11743358_a_at) / Fold change /veh PLEKHG5 (11743358_a_at) / RFU ZSCAN30 (11745921_a_at) / Fold change /veh ZSCAN30 (11745921_a_at) / RFU CMKLR1 (11741424_a_at) / Fold change /veh CMKLR1 (11741424_a_at) / RFU LOC101060620 /// MAPK8IP1 (11723275_at) / Fold change /veh LOC101060620 /// MAPK8IP1 (11723275_at) / RFU SPTSSB (11747773_x_at) / Fold change /veh SPTSSB (11747773_x_at) / RFU PRSS12 (11739890_at) / Fold change /veh PRSS12 (11739890_at) / RFU BIN1 (11741810_x_at) / Fold change /veh BIN1 (11741810_x_at) / RFU WNT11 (11732464_a_at) / Fold change /veh WNT11 (11732464_a_at) / RFU C10orf10 (11716521_a_at) / Fold change /veh C10orf10 (11716521_a_at) / RFU C5orf56 (11738089_at) / Fold change /veh C5orf56 (11738089_at) / RFU CYB561 (11721691_x_at) / Fold change /veh CYB561 (11721691_x_at) / RFU ANKRD19P (11752326_a_at) / Fold change /veh ANKRD19P (11752326_a_at) / RFU OR2T12 /// OR2T33 /// OR2T8 (11738714_s_at) / Fold change /veh OR2T12 /// OR2T33 /// OR2T8 (11738714_s_at) / RFU VCAN (11748164_a_at) / Fold change /veh VCAN (11748164_a_at) / RFU JSRP1 (11732532_at) / Fold change /veh JSRP1 (11732532_at) / RFU KRTAP10-11 (11738290_x_at) / Fold change /veh KRTAP10-11 (11738290_x_at) / RFU MYO3A (11730013_a_at) / Fold change /veh MYO3A (11730013_a_at) / RFU EBF3 (11725865_a_at) / Fold change /veh EBF3 (11725865_a_at) / RFU CAMK2N1 (11719241_x_at) / Fold change /veh CAMK2N1 (11719241_x_at) / RFU C5orf56 (11738088_a_at) / Fold change /veh C5orf56 (11738088_a_at) / RFU OLFML3 (11715873_a_at) / Fold change /veh OLFML3 (11715873_a_at) / RFU LOC100653217 /// NTM (11731650_a_at) / Fold change /veh LOC100653217 /// NTM (11731650_a_at) / RFU MAPK11 (11762145_a_at) / Fold change /veh MAPK11 (11762145_a_at) / RFU FIZ1 (11724087_x_at) / Fold change /veh FIZ1 (11724087_x_at) / RFU OASL (11726364_x_at) / Fold change /veh OASL (11726364_x_at) / RFU SOX15 (11748057_x_at) / Fold change /veh SOX15 (11748057_x_at) / RFU CD79A (11719716_a_at) / Fold change /veh CD79A (11719716_a_at) / RFU HIST1H1D (11736915_at) / Fold change /veh HIST1H1D (11736915_at) / RFU CASKIN2 (11723855_a_at) / Fold change /veh CASKIN2 (11723855_a_at) / RFU LOC730098 (11760151_x_at) / Fold change /veh LOC730098 (11760151_x_at) / RFU OR4N2 (11742367_at) / Fold change /veh OR4N2 (11742367_at) / RFU PRRT2 (11749266_a_at) / Fold change /veh PRRT2 (11749266_a_at) / RFU SNX32 (11753110_a_at) / Fold change /veh SNX32 (11753110_a_at) / RFU CDHR5 (11726645_a_at) / Fold change /veh CDHR5 (11726645_a_at) / RFU RCAN1 (11760418_a_at) / Fold change /veh RCAN1 (11760418_a_at) / RFU FAM167A (11723789_a_at) / Fold change /veh FAM167A (11723789_a_at) / RFU FAM26E (11764081_at) / Fold change /veh FAM26E (11764081_at) / RFU ISYNA1 (11749810_s_at) / Fold change /veh ISYNA1 (11749810_s_at) / RFU ACY1 (11761880_at) / Fold change /veh ACY1 (11761880_at) / RFU 11764098_at / Fold change /veh 11764098_at / RFU SAMD14 (11745864_x_at) / Fold change /veh SAMD14 (11745864_x_at) / RFU NPB (11741838_a_at) / Fold change /veh NPB (11741838_a_at) / RFU TMPRSS6 (11731388_a_at) / Fold change /veh TMPRSS6 (11731388_a_at) / RFU KRTAP10-2 (11738614_at) / Fold change /veh KRTAP10-2 (11738614_at) / RFU ARHGAP8 /// PRR5-ARHGAP8 (11727945_x_at) / Fold change /veh ARHGAP8 /// PRR5-ARHGAP8 (11727945_x_at) / RFU KRTAP5-7 /// NADSYN1 (11734609_at) / Fold change /veh KRTAP5-7 /// NADSYN1 (11734609_at) / RFU RASL12 (11751679_a_at) / Fold change /veh RASL12 (11751679_a_at) / RFU CDKN2B (11736163_a_at) / Fold change /veh CDKN2B (11736163_a_at) / RFU PRF1 (11729649_at) / Fold change /veh PRF1 (11729649_at) / RFU, ZNF638 /// ZNF638-IT1 / Fold change vs veh, ZNF638 /// ZNF638-IT1 / RFU, PANK3 / Fold change vs veh, PANK3 / RFU, SH3YL1 / Fold change vs veh, SH3YL1 / RFU, ZEB2 / Fold change vs veh, ZEB2 / RFU, NRIP1 / Fold change vs veh, NRIP1 / RFU, PTTG1IP / Fold change vs veh, PTTG1IP / RFU, CAPN2 / Fold change vs veh, CAPN2 / RFU, MED14 / Fold change vs veh, MED14 / RFU, SNORA58 / Fold change vs veh, SNORA58 / RFU, C1orf63 / Fold change vs veh, C1orf63 / RFU, LRRFIP1 / Fold change vs veh, LRRFIP1 / RFU, NDUFAF7 / Fold change vs veh, NDUFAF7 / RFU, SLC12A2 / Fold change vs veh, SLC12A2 / RFU, IBTK / Fold change vs veh, IBTK / RFU, ESF1 / Fold change vs veh, ESF1 / Fold change vs veh, TMEM50B / RFU, TAOK1 / Fold change vs veh, TAOK1 / RFU, ACBD3 / Fold change vs veh, ACBD3 / RFU, TMA16 / Fold change vs veh, TMA16 / RFU, RWDD3 / Fold change vs veh, RWDD3 / RFU, BCAT1 / Fold change vs veh, BCAT1 / RFU, EDEM3 / Fold change vs veh, EDEM3 / RFU, TMEM33 / Fold change vs veh, TMEM33 / RFU, WDR75 / Fold change vs veh, WDR75 / RFU, AHCTF1 / Fold change vs veh, AHCTF1 / RFU, TFRC / Fold change vs veh, TFRC / RFU, ZDHHC17 / Fold change vs veh, ZDHHC17 / RFU, NOM1 / Fold change vs veh, NOM1 / RFU, ARL8B / Fold change vs veh, ARL8B / RFU, ZBTB11 / Fold change vs veh, ZBTB11 / RFU, TAMM41 / Fold change vs veh, TAMM41 / RFU, KIAA1704 /// LOC100996395 / Fold change vs veh, KIAA1704 /// LOC100996395 / RFU, ING1 / Fold change vs veh, ING1 / RFU, TRMT61B / Fold change vs veh, TRMT61B / RFU, FUBP3 / Fold change vs veh, FUBP3 / RFU, TP53 / Fold change vs veh, TP53 / RFU, TNKS2 / Fold change vs veh, TNKS2 / RFU, ZFP14 / Fold change vs veh, ZFP14 / RFU, ACTR2 / Fold change vs veh, ACTR2 / RFU, PPP3R1 / Fold change vs veh, PPP3R1 / RFU, PIK3R1 / Fold change vs veh, PIK3R1 / RFU, HNRNPA1 / Fold change vs veh, HNRNPA1 / RFU, RNF170 / Fold change vs veh, RNF170 / RFU, ZNF28 / Fold change vs veh, ZNF28 / RFU, RNGTT / Fold change vs veh, RNGTT / RFU, OGT / Fold change vs veh, OGT / RFU, BRD1 / Fold change vs veh, BRD1 / RFU, MARS / Fold change vs veh, MARS / RFU, ZNF655 / Fold change vs veh, ZNF655 / RFU, FAHD1 / Fold change vs veh, FAHD1 / RFU, BDP1 / Fold change vs veh, BDP1 / RFU, LRRCC1 / Fold change vs veh, LRRCC1 / RFU, ARID1A / Fold change vs veh, ARID1A / RFU, ZNF146 / Fold change vs veh, ZNF146 / RFU, ZNF330 / Fold change vs veh, ZNF330 / RFU, GPN3 / Fold change vs veh, GPN3 / RFU, C9orf123 / Fold change vs veh, C9orf123 / RFU, N4BP2L2 / Fold change vs veh, N4BP2L2 / RFU, ARFIP1 / Fold change vs veh, ARFIP1 / RFU, FAM179B / Fold change vs veh, FAM179B / RFU, BCL10 / Fold change vs veh, BCL10 / RFU, UHRF1BP1L / Fold change vs veh, UHRF1BP1L / RFU, BET1 / Fold change vs veh, BET1 / RFU, CNOT2 / Fold change vs veh, CNOT2 / RFU, ZNF268 / Fold change vs veh, ZNF268 / Fold change vs veh, ZNF507 / RFU, DGCR2 / Fold change vs veh, DGCR2 / RFU, WDSUB1 / Fold change vs veh, WDSUB1 / Fold change vs veh, HSP90B1 /// MIR3652 / RFU, ADSS / Fold change vs veh, ADSS / RFU, GK / Fold change vs veh, GK / RFU, ZNF148 / Fold change vs veh, ZNF148 / RFU, TAF9 / Fold change vs veh, TAF9 / RFU, SLC1A5 / Fold change vs veh, SLC1A5 / RFU, SLMO2 / Fold change vs veh, SLMO2 / RFU, ABCC4 / Fold change vs veh, ABCC4 / RFU, LOC101060439 /// RAP1B / Fold change vs veh, LOC101060439 /// RAP1B / RFU, RFX7 / Fold change vs veh, RFX7 / RFU, GTPBP10 / Fold change vs veh, GTPBP10 / RFU, CNEP1R1 / Fold change vs veh, CNEP1R1 / RFU, BIVM-ERCC5 /// ERCC5 / Fold change vs veh, BIVM-ERCC5 /// ERCC5 / RFU, ILF3 / Fold change vs veh, ILF3 / RFU 11762660_at / Fold change /veh 11762660_at / RFU VCAN (11757783_s_at) / Fold change /veh VCAN (11757783_s_at) / RFU DDX43 (11728927_at) / Fold change /veh DDX43 (11728927_at) / RFU KRT8 (11758188_x_at) / Fold change /veh KRT8 (11758188_x_at) / RFU NKD1 (11759106_at) / Fold change /veh NKD1 (11759106_at) / RFU SRD5A1 (11742802_a_at) / Fold change /veh SRD5A1 (11742802_a_at) / RFU TPSAB1 /// TPSB2 (11721975_s_at) / Fold change /veh TPSAB1 /// TPSB2 (11721975_s_at) / RFU GSTM3 (11746129_a_at) / Fold change /veh GSTM3 (11746129_a_at) / RFU IL23R (11737362_x_at) / Fold change /veh IL23R (11737362_x_at) / RFU TMEM51 (11727254_a_at) / Fold change /veh TMEM51 (11727254_a_at) / RFU PIWIL2 (11732686_x_at) / Fold change /veh PIWIL2 (11732686_x_at) / RFU ORM1 (11744905_x_at) / Fold change /veh ORM1 (11744905_x_at) / RFU CCDC152 (11743942_at) / Fold change /veh CCDC152 (11743942_at) / RFU ECM1 (11717891_a_at) / Fold change /veh ECM1 (11717891_a_at) / RFU IL23R (11748794_a_at) / Fold change /veh IL23R (11748794_a_at) / RFU TNFAIP8L3 (11732012_x_at) / Fold change /veh TNFAIP8L3 (11732012_x_at) / RFU MBOAT4 (11741988_at) / Fold change /veh MBOAT4 (11741988_at) / RFU 11764193_at / Fold change /veh 11764193_at / RFU TMEM53 (11763286_at) / Fold change /veh TMEM53 (11763286_at) / RFU MAGEB2 (11727129_at) / Fold change /veh MAGEB2 (11727129_at) / RFU TMEM200A (11744735_a_at) / Fold change /veh TMEM200A (11744735_a_at) / RFU CCDC152 (11751479_a_at) / Fold change /veh CCDC152 (11751479_a_at) / RFU FAM211A (11726209_a_at) / Fold change /veh FAM211A (11726209_a_at) / RFU RGS16 (11746705_a_at) / Fold change /veh RGS16 (11746705_a_at) / RFU VCAN (11755009_s_at) / Fold change /veh VCAN (11755009_s_at) / RFU RHOB (11743442_s_at) / Fold change /veh RHOB (11743442_s_at) / RFU RGS16 (11720943_a_at) / Fold change /veh RGS16 (11720943_a_at) / RFU RGS16 (11720944_at) / Fold change /veh RGS16 (11720944_at) / RFU, VPS4B / Fold change vs veh, VPS4B / RFU, CREB1 / Fold change vs veh, CREB1 / RFU, DNAJC13 / Fold change vs veh, DNAJC13 / RFU, GNAQ / Fold change vs veh, GNAQ / RFU, CDK5R1 / Fold change vs veh, CDK5R1 / RFU, ZRANB3 / Fold change vs veh, ZRANB3 / RFU, CUL4A / Fold change vs veh, CUL4A / RFU, CCNY / Fold change vs veh, CCNY / RFU, UFL1 / Fold change vs veh, UFL1 / RFU, COG3 / Fold change vs veh, COG3 / RFU, DIAPH2 / Fold change vs veh, DIAPH2 / RFU, SKA2 / Fold change vs veh, SKA2 / RFU, AFF3 / Fold change vs veh, AFF3 / RFU, LMF1 / Fold change vs veh, LMF1 / RFU, IPO11 / Fold change vs veh, IPO11 / RFU, DFFB / Fold change vs veh, DFFB / RFU, FOXP1 / Fold change vs veh, FOXP1 / RFU, CARD8 / Fold change vs veh, CARD8 / RFU, STRN3 / Fold change vs veh, STRN3 / RFU, ADK / Fold change vs veh, ADK / RFU, RASSF2 / Fold change vs veh, RASSF2 / RFU, WIPF1 / Fold change vs veh, WIPF1 / RFU, LARP1B / Fold change vs veh, LARP1B / RFU, RASA1 / Fold change vs veh, RASA1 / RFU, RB1 / Fold change vs veh, RB1 / RFU, PPFIA1 / Fold change vs veh, PPFIA1 / RFU, MAT2A / Fold change vs veh, MAT2A / RFU, CCT5 / Fold change vs veh, CCT5 / RFU, WDR92 / Fold change vs veh, WDR92 / RFU, CUX1 / Fold change vs veh, CUX1 / RFU, TTC7A / Fold change vs veh, TTC7A / RFU, TMEM135 / Fold change vs veh, TMEM135 / RFU, DEPTOR / Fold change vs veh, DEPTOR / RFU, CPM / Fold change vs veh, CPM / RFU, DNAJB6 / Fold change vs veh, DNAJB6 / RFU, CACNA2D3 / Fold change vs veh, CACNA2D3 / RFU, DTX4 / Fold change vs veh, DTX4 / RFU, TFCP2 / Fold change vs veh, TFCP2 / RFU, GMCL1 /// GMCL1P1 / Fold change vs veh, GMCL1 /// GMCL1P1 / RFU, AEBP2 / Fold change vs veh, AEBP2 / RFU, SNHG1 /// SNORD22 /// SNORD25 /// SNORD26 /// SNORD27 /// SNORD28 /// SNORD29 /// SNORD31 / Fold change vs veh, SNHG1 /// SNORD22 /// SNORD25 /// SNORD26 /// SNORD27 /// SNORD28 /// SNORD29 /// SNORD31 / Fold change (Aza/veh), C12orf56 (ProbeSet 11735607_a_at) / Fold change (ACY-1035/veh), C12orf56 (ProbeSet 11735607_a_at) / Fold change (Aza/veh), FGFR1OP (ProbeSet 11751329_s_at) / Fold change (ACY-1035/veh), FGFR1OP (ProbeSet 11751329_s_at) / Fold change (Aza/veh), VPS36 (ProbeSet 11739960_a_at) / Fold change (ACY-1035/veh), VPS36 (ProbeSet 11739960_a_at) / RFU SYPL1 (11715823_x_at) / Fold change /veh SYPL1 (11715823_x_at) / RFU IGFBP7 (11715501_s_at) / Fold change /veh IGFBP7 (11715501_s_at) / RFU REEP3 (11722064_at) / Fold change /veh REEP3 (11722064_at) / RFU IGLL1 (11728026_x_at) / Fold change /veh IGLL1 (11728026_x_at): dose or concentration left out as unconfirmed. The note with it: MV-4-11 cells, 48 hours.

On to `Nc1ncn([C@@H]2O[C@H](CO)[C@@H](O)[C@H]2O)c(=O)n1` [azacitidine], for which the “RFU PODN (11730768_x_at)” value is reported as 27.35 RFU.

The values are drawn from PMC5218480 (PLoS ONE, 2017).
